Here are results for 9 molecules from ChEMBL document CHEMBL4316588, “Design, Synthesis, and Biological Evaluation of Novel DNA Gyrase-Inhibiting Spiropyrimidinetriones as Potent Antibiotics for Treatment of Infections Caused by Multidrug-Resistant Gram-Positive Bacteria” (J Med Chem, 2019).

Structures are written as SMILES. ≈ marks a conversion by molar mass, not a printed value. Calls of active or inactive are those of the source. Bounds are passed on as bounds.

Test [1] has as its system Staphylococcus epidermidis. In words: Antibacterial activity against methicillin-sensitive Staphylococcus epidermidis after 18 to 20 hrs by CLSI-protocol based broth microdilution method. Format: functional. On the technique in general: Dilution methods test growth across graded concentrations, often in twofold steps.
In test [2] the test system is Staphylococcus aureus. The experiment in a line: Antibacterial activity against methicillin-sensitive Staphylococcus aureus after 18 to 20 hrs by CLSI-protocol based broth microdilution method. In kind it is functional.
Test [3] relates to Staphylococcus epidermidis. In words: Antibacterial activity against methicillin-resistant Staphylococcus epidermidis after 18 to 20 hrs by CLSI-protocol based broth microdilution method. In kind it is functional.
The subject of a further test is Streptococcus pneumoniae. The experiment in a line: Antibacterial activity against penicillin-resistant Streptococcus pneumoniae after 18 to 20 hrs by CLSI-protocol based broth microdilution method. In kind it is functional.
In test [4] the test system is Staphylococcus aureus. In words: Antibacterial activity against methicillin-resistant Staphylococcus aureus after 18 to 20 hrs by CLSI-protocol based broth microdilution method. In kind it is functional.
A further test relates to Streptococcus pyogenes. In words: Antibacterial activity against Streptococcus pyogenes after 18 to 20 hrs by CLSI-protocol based broth microdilution method. In kind it is functional.
Test [5] relates to Staphylococcus aureus. The experiment in a line: Antibacterial activity against methicillin-resistant Staphylococcus aureus infected in Kunming mouse dosed subcutaneously at 0.5 and 4.0 hrs postinfection and measured at 7 to 14 days post treatment by Bliss method. In kind it is functional. Particulars: sc.
In test [6] the test system is Staphylococcus aureus. The experiment in a line: Antibacterial activity against methicillin-sensitive Staphylococcus aureus infected in Kunming mouse dosed subcutaneously at 0.5 and 4.0 hrs postinfection and measured at 7 to 14 days post treatment by Bliss method. In kind it is functional. Particulars: sc.
For the next test, the system named is Neisseria gonorrhoeae. The experiment in a line: Antibacterial activity against Neisseria gonorrhoeae after 18 to 20 hrs by CLSI-protocol based agar microdilution method. In kind it is functional.
Test [7] concerns the target Voltage-gated inwardly rectifying potassium channel KCNH2 (Homo sapiens, UniProt Q12809). The experiment in a line: Inhibition of human ERG expressed in CHO cells in at -80 mV holding potential by automated Qpatch clamp assay. Format: cell-based.
The target in test [8] is DNA topoisomerase 2-alpha (Homo sapiens, UniProt P11388). The experiment in a line: Inhibition of human topoisomerase-2alpha using catenated DNA as substrate after 30 mins by ethidium bromide-based gel electrophoresis.
Sequence of DNA topoisomerase 2-alpha (P11388 whole entry): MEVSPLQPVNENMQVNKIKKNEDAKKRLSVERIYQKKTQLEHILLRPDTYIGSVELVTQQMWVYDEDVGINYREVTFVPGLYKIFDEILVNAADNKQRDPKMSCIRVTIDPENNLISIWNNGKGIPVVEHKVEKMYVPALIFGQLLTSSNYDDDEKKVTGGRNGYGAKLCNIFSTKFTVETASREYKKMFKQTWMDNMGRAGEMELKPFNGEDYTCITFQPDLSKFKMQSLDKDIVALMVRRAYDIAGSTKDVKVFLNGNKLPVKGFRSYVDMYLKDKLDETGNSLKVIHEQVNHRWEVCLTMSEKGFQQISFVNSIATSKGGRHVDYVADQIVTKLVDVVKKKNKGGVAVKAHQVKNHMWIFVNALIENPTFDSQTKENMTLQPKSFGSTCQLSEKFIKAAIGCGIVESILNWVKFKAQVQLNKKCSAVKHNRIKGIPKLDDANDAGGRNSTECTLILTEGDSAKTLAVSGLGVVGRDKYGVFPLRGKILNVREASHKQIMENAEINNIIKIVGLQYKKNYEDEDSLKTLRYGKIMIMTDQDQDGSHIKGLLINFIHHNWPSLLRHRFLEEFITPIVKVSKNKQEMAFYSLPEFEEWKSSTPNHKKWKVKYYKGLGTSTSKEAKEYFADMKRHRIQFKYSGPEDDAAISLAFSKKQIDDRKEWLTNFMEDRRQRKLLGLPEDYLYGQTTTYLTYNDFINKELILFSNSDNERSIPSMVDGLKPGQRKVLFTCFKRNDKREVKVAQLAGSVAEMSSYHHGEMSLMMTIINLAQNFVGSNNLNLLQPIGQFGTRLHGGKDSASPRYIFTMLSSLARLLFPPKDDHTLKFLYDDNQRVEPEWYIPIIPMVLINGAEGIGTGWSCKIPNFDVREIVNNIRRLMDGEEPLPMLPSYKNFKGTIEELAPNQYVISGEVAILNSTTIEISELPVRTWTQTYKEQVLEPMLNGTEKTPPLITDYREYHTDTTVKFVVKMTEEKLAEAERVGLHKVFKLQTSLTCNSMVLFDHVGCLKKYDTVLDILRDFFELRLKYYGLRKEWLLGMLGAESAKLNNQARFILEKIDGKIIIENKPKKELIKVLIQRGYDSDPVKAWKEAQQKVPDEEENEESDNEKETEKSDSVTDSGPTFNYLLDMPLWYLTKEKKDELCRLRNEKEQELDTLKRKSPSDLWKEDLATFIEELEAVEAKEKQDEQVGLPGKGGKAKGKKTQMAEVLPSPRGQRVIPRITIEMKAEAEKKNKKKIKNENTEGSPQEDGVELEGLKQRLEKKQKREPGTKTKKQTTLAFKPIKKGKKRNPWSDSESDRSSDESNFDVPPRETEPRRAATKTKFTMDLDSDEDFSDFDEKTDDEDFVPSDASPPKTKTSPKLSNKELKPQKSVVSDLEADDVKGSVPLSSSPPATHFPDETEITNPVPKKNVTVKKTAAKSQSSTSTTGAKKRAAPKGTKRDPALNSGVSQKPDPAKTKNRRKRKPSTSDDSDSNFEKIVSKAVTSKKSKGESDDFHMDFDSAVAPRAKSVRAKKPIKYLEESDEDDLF
The mark [9] stands for this setting: Staphylococcus aureus, read-out: MIC.
The mark [10] stands for this setting: Streptococcus pyogenes, read-out: MIC.

Sequence of Voltage-gated inwardly rectifying potassium channel KCNH2 (Q12809 whole entry): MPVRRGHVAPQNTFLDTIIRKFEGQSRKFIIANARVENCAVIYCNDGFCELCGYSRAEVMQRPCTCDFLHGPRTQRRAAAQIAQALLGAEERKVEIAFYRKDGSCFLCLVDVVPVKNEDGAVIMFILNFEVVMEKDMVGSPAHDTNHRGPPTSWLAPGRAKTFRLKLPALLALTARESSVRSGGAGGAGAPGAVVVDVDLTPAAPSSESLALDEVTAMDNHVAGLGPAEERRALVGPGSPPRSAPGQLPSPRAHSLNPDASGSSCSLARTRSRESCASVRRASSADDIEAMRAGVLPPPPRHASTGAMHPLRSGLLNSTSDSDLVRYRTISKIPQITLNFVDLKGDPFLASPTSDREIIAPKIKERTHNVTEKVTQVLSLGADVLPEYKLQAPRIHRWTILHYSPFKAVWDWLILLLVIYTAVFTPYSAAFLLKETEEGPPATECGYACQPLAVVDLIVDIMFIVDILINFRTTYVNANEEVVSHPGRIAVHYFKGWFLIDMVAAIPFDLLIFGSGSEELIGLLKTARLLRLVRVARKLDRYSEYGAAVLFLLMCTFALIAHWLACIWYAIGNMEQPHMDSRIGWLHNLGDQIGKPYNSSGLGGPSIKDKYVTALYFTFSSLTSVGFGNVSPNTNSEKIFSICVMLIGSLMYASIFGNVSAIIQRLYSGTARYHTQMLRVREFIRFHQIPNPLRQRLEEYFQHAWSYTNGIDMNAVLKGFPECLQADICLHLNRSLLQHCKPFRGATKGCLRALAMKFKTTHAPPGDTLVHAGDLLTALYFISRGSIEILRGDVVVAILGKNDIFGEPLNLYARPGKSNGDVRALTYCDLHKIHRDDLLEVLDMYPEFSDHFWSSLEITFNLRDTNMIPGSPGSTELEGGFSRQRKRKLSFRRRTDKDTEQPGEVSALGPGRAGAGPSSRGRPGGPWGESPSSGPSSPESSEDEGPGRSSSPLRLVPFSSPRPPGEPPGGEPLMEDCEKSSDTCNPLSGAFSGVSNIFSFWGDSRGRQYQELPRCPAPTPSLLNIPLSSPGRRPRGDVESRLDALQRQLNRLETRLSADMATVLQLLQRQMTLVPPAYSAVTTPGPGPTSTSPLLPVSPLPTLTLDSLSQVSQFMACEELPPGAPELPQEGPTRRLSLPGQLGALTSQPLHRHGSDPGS

Take `C[C@@H]1CN2c3c(cc4c(N5CCOCC5=O)ncnc4c3F)CC3(C(=O)NC(=O)NC3=O)[C@H]2[C@H](C)O1` (racemic): the MIC entry (in test [1]; in the test with Staphylococcus aureus [2]; in [3]; with Streptococcus pneumoniae; in the test on Staphylococcus aureus [4]; with Streptococcus pyogenes) was “inactive” throughout.

Take `C[C@@H]1CN2c3c(cc4c(N5C[C@H](CS(C)(=O)=O)SC5=O)noc4c3F)CC3(C(=O)NC(=O)NC3=O)[C@H]2[C@H](C)O1`: the MIC in test [1] is 0.25 to 1 µg/mL (≈ 0.43 to 1.72 µM); in the test with Staphylococcus aureus [2] (setting [9]), 2 to 4 µg/mL (≈ 3.44 to 6.88 µM); in [3], 0.25 to 1 µg/mL (≈ 0.43 to 1.72 µM); in the test with Streptococcus pneumoniae, 0.5 to 4 µg/mL (≈ 0.86 to 6.88 µM); in the test with Staphylococcus aureus [4], 1 to 8 µg/mL (≈ 1.72 to 13.8 µM); in the test on Streptococcus pyogenes (setting [10]), 0.5 to 1 µg/mL (≈ 0.86 to 1.72 µM).

Take `C[C@@H]1CN2c3c(cc4c(N5C(=O)SC[C@@H]5Cc5ccccc5)noc4c3F)CC3(C(=O)NC(=O)NC3=O)[C@H]2[C@H](C)O1`: the MIC in [1] was in the range of 1 to 4 µg/mL (≈ 1.73 to 6.9 µM); in the test with Staphylococcus aureus [2] (setting [9]), 2 to 8 µg/mL (≈ 3.45 to 13.8 µM); in test [3], 1 to 4 µg/mL (≈ 1.73 to 6.9 µM); against Streptococcus pneumoniae, 4 to 8 µg/mL (≈ 6.9 to 13.8 µM); in the test with Staphylococcus aureus [4], 8 to 16 µg/mL (≈ 13.8 to 27.6 µM); with Streptococcus pyogenes (setting [10]) it was 4 to 8 µg/mL (≈ 6.9 to 13.8 µM).

As to `C[C@@H]1CN2c3c(cc4c(N5C(=O)OC[C@@H]5C)noc4c3F)CC3(C(=O)N(C)C(=O)N(C)C3=O)[C@H]2[C@H](C)O1`, the MIC entry (in [1]; in the test on Staphylococcus aureus [2]; in test [3]; with Streptococcus pneumoniae; in the test with Staphylococcus aureus [4]; in the test on Streptococcus pyogenes) was “inactive” in each case.

In the case of `C[C@@H]1CN2c3c(cc4c(N5C(=O)SCC56CC6)noc4c3F)CC3(C(=O)NC(=O)NC3=O)[C@H]2[C@H](C)O1`, the MIC is 1 to 4 µg/mL (≈ 1.94 to 7.76 µM) in [1]; 2 to 4 µg/mL (≈ 3.88 to 7.76 µM) in the test on Staphylococcus aureus [2] (setting [9]); 2 to 4 µg/mL (≈ 3.88 to 7.76 µM) in test [3]; 1 to 2 µg/mL (≈ 1.94 to 3.88 µM) against Streptococcus pneumoniae; 0.5 to 8 µg/mL (≈ 0.97 to 15.5 µM) against Staphylococcus aureus [4]; 4 µg/mL (≈ 7.76 µM) in the test on Streptococcus pyogenes (setting [10]).

With `CC(=O)NC[C@H]1CN(c2ccc(N3CCOCC3)c(F)c2)C(=O)O1` [LINEZOLID], the values for the ED50 in the test on Staphylococcus aureus [5] and in the test with Staphylococcus aureus [6] were 4.83 mg/kg and 4.53 mg/kg, respectively.

Turning to `C[C@@H]1CN2c3c(cc4c(N5CCSC5=O)noc4c3F)CC3(C(=O)NC(=O)NC3=O)[C@H]2[C@H](C)O1`, in the test on Neisseria gonorrhoeae, the MIC50 was 0.03 µg/mL (≈ 0.0613 µM). In the test with Neisseria gonorrhoeae, the MIC90 was 0.06 µg/mL (≈ 0.123 µM). Further, the MIC in [1] is less than 0.03 µg/mL; with Staphylococcus aureus [2] (setting [9]), not above 0.03 µg/mL; in test [3] it was less than 0.03 µg/mL; with Streptococcus pneumoniae, not above 0.03 µg/mL; in the test on Staphylococcus aureus [4], less than 0.03 µg/mL; in the test on Streptococcus pyogenes (setting [10]), less than 0.03 µg/mL. The molecule also showed an IC50 in test [7] of more than 40000 nM.

`COc1cccc2c1C(=O)c1c(O)c3c(c(O)c1C2=O)C[C@@](O)(C(=O)CO)C[C@@H]3O[C@H]1C[C@H](N)[C@H](O)[C@H](C)O1` [DOXORUBICIN] came in with an IC50 in [8] of 600 nM.

As to `C[C@@H]1CN(c2noc3c(C#N)c4c(cc23)CC2(C(=O)NC(=O)NC2=O)[C@H]2[C@H](C)O[C@H](C)CN42)C(=O)O1`, the MIC in [1] was 1 to 2 µg/mL (≈ 2.02 to 4.04 µM); in the test on Staphylococcus aureus [2] (setting [9]), 2 to 8 µg/mL (≈ 4.04 to 16.2 µM); in [3], 2 µg/mL (≈ 4.04 µM); in the test with Streptococcus pneumoniae, 4 to 8 µg/mL (≈ 8.09 to 16.2 µM); against Staphylococcus aureus [4] it was 0.25 to 8 µg/mL (≈ 0.506 to 16.2 µM); in the test with Streptococcus pyogenes (setting [10]), 4 to 8 µg/mL (≈ 8.09 to 16.2 µM).

The MIC is the smallest concentration in the dilution series that meets the test's criterion for growth inhibition. As a reminder, the ED50 is the dose at which the effect has come halfway, by size or by number of responders. Read a high ED50 as a need for a large dose. A word on the MIC50: it is an inhibitory concentration at the 50% level, which refers to growth in some studies and to a panel of isolates in others. The low end stands for higher susceptibility, the high end for lower susceptibility. For orientation: MIC90 means the lowest concentration that inhibits either 90% of growth or 90% of the strains tested, depending on the study. A high value points to lower susceptibility. For orientation: IC50 means the concentration at which inhibition is half-maximal. Higher therefore signals lower potency.
